# Source: patent US20070213354A1, “Compositions and Methods for the Treatment of Multiple Sclerosis” (AmpliMed Corporation, priority 2006, published 2007)
# pIC50: −log10 of the molar value.
# Legend:
# L1210 sensitive = settings: murine leukemia L1210 sensitive to standard cytotoxic agents; MTT, continuous exposure; cited from earlier work
# acute monophasic EAE [1] = test: Acute monophasic EAE, drug administration beginning on day 11 post immunization; type: in vivo, C57/BL6 mice; settings: for Mean Clinical Score / Day of Onset / Incidence: 32 day observation; for Mean Clinical Score: mice that had evidence of disease; for Max. Clinical Score: scale 0 to 5
# Description: (§1) An acute monophasic form of EAE, induced by the administration of MOG, mimics the progressive clinical patterns of MS seen in human patients and can provide an opportunity to investigate a therapy's ability to prevent progression to symptomatic disease, to prevent or reduce the disability that would otherwise be caused by disease progression, or to treat one or more clinical symptoms of MS. The induction of the acute monophasic form of EAE in C57/BL6 mice can be achieved as described in Gaupp et al., Am J Pathol. 162(1): 139-150 (2003). Similarly, a relapsing-remitting form of EAE, induced by the administration of PLP, mimics the more common relapsing-remitting form of MS seen in humans and can provide an opportunity to investigate potential therapies to reduce the frequency, severity, or duration of a disease relapse, to otherwise prevent disability caused by disease progression, or to relieve one or more clinical symptoms of MS in human patients. The induction of the relapsing-remitting form of EAE in SJL/J mice can be achieved as described in Fridkis-Hareli et al., J Clin Invest. 109(12): 1635-1643 (2002).
# (§2) Acute monophasic EAE was induced in C57/BL6 mice by subcutaneous flank and tail base injections of 200 μg of MOG in complete Freund's adjuvent containing 500 μg of heat-inactivated mycobacterium tuberculosis on day 0, supplemented by intravenous injections of 200 ng of pertussis toxin on day 2.
# With reference now to FIG. 4, five groups of mice (each group containing 5 or 6 individuals), immunized for acute monophasic EAE as described hereinbefore, were treated with either ethonafide (AMP) or mitoxantrone at a dose of 0.5 mg/kg or 1.0 mg/kg beginning on day 11 following immunization, for seven days, or were left untreated to be used as a control. Each drug was administered intraperitoneally in phosphate buffered saline (untreated mice received i.p. administrations of the PBS vehicle). The mice were observed daily for clinical signs of disease and were scored as indicated hereinbefore on a clinical scale from 0 to 5. The incidence of disease in the immunized mice, the day of disease onset, the maximum clinical score, and the mean clinical score over a 32 day observation period were determined, and the results are shown in Table 3.
# neonatal rat myocytes = settings: 1 hour drug concentration that reduces ATP/protein ratio to 50% of untreated control myocytes; read-out: IC50 Cardiotox; cited from earlier work
# L1210 resistant = settings: murine leukemia L1210 resistant, P-glycoprotein producing; MTT, continuous exposure; cited from earlier work
# acute monophasic EAE [2] = test: Acute monophasic EAE, drug administration beginning with immunization; type: in vivo, C57/BL6 mice; settings: for Day of Onset / Incidence / Mean Clinical Score: 30 day observation; for Max. Clinical Score: scale 0 to 5
# Description: as §1, §2
# With reference first to FIGS. 1-3, beginning on the day of immunization for acute monophasic EAE, nine groups of mice (each group containing 5 or 6 individuals) were treated with either ethonafide (AMP; a compound of Formula (II) wherein the dibenzisoquinoline ring structure is substituted at position 6 with —OCH2CH3) or mitoxantrone at a dose of 0.125 mg/kg, 0.25 mg/kg, or 0.5 mg/kg daily for seven days, or were left untreated to be used as a control at each respective dose level. Each drug was administered intraperitoneally in phosphate buffered saline (untreated mice received i.p. administrations of the PBS vehicle). The mice were observed daily for clinical signs of disease, and were scored (by multiple investigators) on an arbitrary scale from 0 to 5 in increments of 0.5 according to the following parameters: 0—no clinical signs of disease; 1—flaccid tail; 2—hind limb weakness or abnormal gait; 3—complete hind paralysis; 4—complete hind paralysis with forelimb weakness or paralysis; and 5-moribund or deceased. The incidence of disease in the immunized mice, the day of disease onset, the maximum clinical score, and the mean clinical score over a 30 day observation period were determined, and the results are shown in Table 2.
# [3] = 0.5 mg/kg i.p. for seven days beginning on day 11
# [4] = 0.5 mg/kg i.p. for seven days beginning on day 11 following immunization
# [5] = 1.0 mg/kg i.p. for seven days beginning on day 11
# [6] = 1.0 mg/kg i.p. for seven days beginning on day 11 following immunization
# [7] = 0.125 mg/kg i.p. daily for seven days from day of immunization
# [8] = 0.125 mg/kg i.p. daily for seven days from day of immunization, mice that had evidence of disease
# [9] = 0.25 mg/kg i.p. daily for seven days from day of immunization
# [10] = 0.25 mg/kg i.p. daily for seven days from day of immunization, mice that had evidence of disease
# [11] = 0.5 mg/kg i.p. daily for seven days from day of immunization
structure (smiles),measurement,setting,value
"O=C1c2c(O)ccc(O)c2C(=O)c2c(NCCNCCO)ccc(NCCNCCO)c21 [Mitoxantrone, reference compound]",pIC50,L1210 sensitive,8.00
same,Mean Clinical Score,acute monophasic EAE [1]; [3],0.59 ± 1.67
same,Day of Onset,acute monophasic EAE [1]; [4],12.2 ± 0.68
same,Incidence,acute monophasic EAE [1]; [4],100%
same,Max. Clinical Score,acute monophasic EAE [1]; [4],2.4 ± 0.36
same,Mean Clinical Score,acute monophasic EAE [1]; [5],0.51 ± 0.21
same,Day of Onset,acute monophasic EAE [1]; [6],13.3 ± 0.55
same,Incidence,acute monophasic EAE [1]; [6],60%
same,Max. Clinical Score,acute monophasic EAE [1]; [6],2.8 ± 0.36
same,pIC50,neonatal rat myocytes,5.11
same,pIC50,L1210 resistant,7.41
same,Day of Onset,acute monophasic EAE [2]; [7],12.5 ± 0.67
same,Incidence,acute monophasic EAE [2]; [7],100%
same,Mean Clinical Score,acute monophasic EAE [2]; [8],1.63 ± 0.59
same,Max. Clinical Score,acute monophasic EAE [2]; [7],3.1 ± 0.33
same,Incidence,acute monophasic EAE [2]; [9],40%
same,Mean Clinical Score,acute monophasic EAE [2]; [10],0.21 ± 0.07
same,Incidence,acute monophasic EAE [2]; [11],0%
same,Mean Clinical Score,acute monophasic EAE [2]; [11],0
same,Max. Clinical Score,acute monophasic EAE [2]; [11],0
CN(C)CCN1C(=O)c2cccc3cc4ccc(Cl)cc4c(c23)C1=O [*10-Cl],pIC50,L1210 sensitive,8.30
same,pIC50,neonatal rat myocytes,6.11
same,pIC50,L1210 resistant,8.10
CN(C)CCNc1c2ccccc2c2c3c(cccc13)C(=O)N(CCN(C)C)C2=O [*7-NH(CH2)2N(CH3)2],pIC50,L1210 sensitive,6.28
same,pIC50,neonatal rat myocytes,3.54
same,pIC50,L1210 resistant,6.28
CSc1c2ccccc2c2c3c(cccc13)C(=O)N(CCN(C)C)C2=O [*7-SCH3],pIC50,L1210 sensitive,5.20
same,pIC50,neonatal rat myocytes,< 4.30
same,pIC50,L1210 resistant,5.91
CC(=O)Nc1cccc2c3c4c(cccc4cc12)C(=O)N(CCN(C)C)C3=O [*8-NHCOCH3],pIC50,L1210 sensitive,6.31
same,pIC50,neonatal rat myocytes,4.92
same,pIC50,L1210 resistant,6.29
COc1ccc2cc3cccc4c3c(c2c1)C(=O)N(CCN(C)C)C4=O [*10-OCH3],pIC50,L1210 sensitive,7.68
same,pIC50,neonatal rat myocytes,5.04
same,pIC50,L1210 resistant,7.28
CN(C)CCN1C(=O)c2c(NC(=O)C(C)(C)C)ccc3cc4ccccc4c(c23)C1=O [*4-NHCOC(CH3)3],pIC50,L1210 sensitive,6.06
same,pIC50,neonatal rat myocytes,< 4.61
same,pIC50,L1210 resistant,6.76
O=C1c2cccc3cc4ccccc4c(c23)C(=O)N1CCc1ccccn1 [2-(CH2)2-2-pyridyl],pIC50,L1210 sensitive,5.19
same,pIC50,neonatal rat myocytes,< 4.60
same,pIC50,L1210 resistant,4.81
CN(C)CCN1C(=O)c2cccc3cc4cccc([N+](=O)[O-])c4c(c23)C1=O [*11-NO2],pIC50,L1210 sensitive,7.64
same,pIC50,neonatal rat myocytes,5.06
same,pIC50,L1210 resistant,7.30
CN(C)CCN1C(=O)c2ccc(S(C)(=O)=O)c3cc4ccccc4c(c23)C1=O [*6-SO2CH3],pIC50,L1210 sensitive,7.46
same,pIC50,neonatal rat myocytes,5.64
same,pIC50,L1210 resistant,7.46
CNCCN1C(=O)c2ccc(Cl)c3cc4ccccc4c(c23)C1=O [2-(CH2)2NHCH3; 6-Cl],pIC50,L1210 sensitive,7.28
same,pIC50,neonatal rat myocytes,5.12
same,pIC50,L1210 resistant,7.28
CCOc1ccc2c3c(c4ccccc4cc13)C(=O)N(CCN(C)C)C2=O [*6-OC2H5],pIC50,L1210 sensitive,8.10
same,Mean Clinical Score,acute monophasic EAE [1]; [3],1.86 ± 0.35
same,Day of Onset,acute monophasic EAE [1]; [4],11.8 ± 0.72
same,Incidence,acute monophasic EAE [1]; [4],100%
same,Max. Clinical Score,acute monophasic EAE [1]; [4],3.9 ± 0.26
same,Mean Clinical Score,acute monophasic EAE [1]; [5],1.17 ± 0.24
same,Day of Onset,acute monophasic EAE [1]; [6],12.3 ± 0.55
same,Incidence,acute monophasic EAE [1]; [6],60%
same,Max. Clinical Score,acute monophasic EAE [1]; [6],3.7 ± 0.22
same,effect in the treatment of clinical symptoms induced in the EAE mouse model,"acute monophasic EAE [1]; 0.5 and 1.0 mg/kg beginning on day 11, FIG. 4, Table 3",dose dependent effect
same,pIC50,neonatal rat myocytes,5.75
same,pIC50,L1210 resistant,8.15
same,Day of Onset,acute monophasic EAE [2]; [7],11.5 ± 0.88
same,Incidence,acute monophasic EAE [2]; [7],100%
same,Mean Clinical Score,acute monophasic EAE [2]; [8],1.98 ± 0.48
same,Max. Clinical Score,acute monophasic EAE [2]; [7],3.5 ± 0.22
same,Day of Onset,acute monophasic EAE [2]; [9],17.8 ± 3.4
same,Incidence,acute monophasic EAE [2]; [9],100%
same,Mean Clinical Score,acute monophasic EAE [2]; [10],0.88 ± 0.38
same,Max. Clinical Score,acute monophasic EAE [2]; [9],1.8 ± 1.16
same,Incidence,acute monophasic EAE [2]; [11],0%
same,Mean Clinical Score,acute monophasic EAE [2]; [11],0
same,Max. Clinical Score,acute monophasic EAE [2]; [11],0
same,effect in delaying or preventing the onset of clinically symptomatic progressive disease and the disability caused thereby,"acute monophasic EAE [2]; 0.125, 0.25, 0.5 mg/kg from day of immunization, FIGS. 1-3, Table 2",dose dependent effect
CN(C)CCN1C(=O)c2cccc3cc4ccc(O)cc4c(c23)C1=O [*10-OH],pIC50,L1210 sensitive,6.72
same,pIC50,neonatal rat myocytes,< 4.57
same,pIC50,L1210 resistant,6.27
CN(C)CCN1C(=O)c2cccc3cc4c(N)cccc4c(c23)C1=O [*8-NH2],pIC50,L1210 sensitive,5.17
same,pIC50,neonatal rat myocytes,< 4.09
same,pIC50,L1210 resistant,5.17
CNCCN1C(=O)c2ccc(OC)c3cc4ccccc4c(c23)C1=O [2-(CH2)2NHCH3; 6-OCH3],pIC50,L1210 sensitive,7.39
same,pIC50,neonatal rat myocytes,5.09
same,pIC50,L1210 resistant,7.57
O=C1c2cccc3cc4ccccc4c(c23)C(=O)N1c1cccnc1 [2-(3-pyridyl)],pIC50,L1210 sensitive,6.26
same,pIC50,neonatal rat myocytes,< 4.60
same,pIC50,L1210 resistant,6.26
CN(C)CCN1C(=O)c2c(N)ccc3cc4ccccc4c(c23)C1=O [*4-NH2],pIC50,L1210 sensitive,8.30
same,pIC50,neonatal rat myocytes,6.36
same,pIC50,L1210 resistant,8.10
CN(C)CCN1C(=O)c2cccc3cc4cc(O)ccc4c(c23)C1=O [*9-OH],pIC50,L1210 sensitive,8.30
same,pIC50,neonatal rat myocytes,6.39
same,pIC50,L1210 resistant,8.15
CN(C)CCN1C(=O)c2cc(N)cc3cc4ccccc4c(c23)C1=O [*5-NH2],pIC50,L1210 sensitive,8.22
same,pIC50,neonatal rat myocytes,5.76
same,pIC50,L1210 resistant,7.82
O=C1c2cccc3cc4ccccc4c(c23)C(=O)N1CCN1CCCC1 [2-(CH2)2N(CH2)4],pIC50,L1210 sensitive,7.82
same,pIC50,neonatal rat myocytes,6.04
same,pIC50,L1210 resistant,7.92
COc1ccc2c3c4c(cccc4cc2c1)C(=O)N(CCN(C)C)C3=O [*9-OCH3],pIC50,L1210 sensitive,7.27
same,pIC50,neonatal rat myocytes,> 5.59
same,pIC50,L1210 resistant,7.27
CN(C)CCN1C(=O)c2ccc(N(C)C)c3cc4ccccc4c(c23)C1=O [*6-N(CH3)2],pIC50,L1210 sensitive,7.64
same,pIC50,neonatal rat myocytes,4.33
same,pIC50,L1210 resistant,7.02
